The source of these data is the Kinase Knowledgebase extract (Sharma et al. 2016).

Some targets named below: PIK3CB (Human) (UniProt P42338); PIK3CG (human) (UniProt P48736); PIK3CA (human) (UniProt P42336); PIK3CD (Human) (UniProt O00329); EGFR (human) (UniProt P00533).
Another assay has as its target CDK2 (human) (UniProt P24941). As to conditions: for inhibition: concentration not given here.
A further assay addresses MAPK14 (human) (UniProt Q16539). As to conditions: concentration not given here.

Sequence of PIK3CA (human) (P42336 whole entry, looked up): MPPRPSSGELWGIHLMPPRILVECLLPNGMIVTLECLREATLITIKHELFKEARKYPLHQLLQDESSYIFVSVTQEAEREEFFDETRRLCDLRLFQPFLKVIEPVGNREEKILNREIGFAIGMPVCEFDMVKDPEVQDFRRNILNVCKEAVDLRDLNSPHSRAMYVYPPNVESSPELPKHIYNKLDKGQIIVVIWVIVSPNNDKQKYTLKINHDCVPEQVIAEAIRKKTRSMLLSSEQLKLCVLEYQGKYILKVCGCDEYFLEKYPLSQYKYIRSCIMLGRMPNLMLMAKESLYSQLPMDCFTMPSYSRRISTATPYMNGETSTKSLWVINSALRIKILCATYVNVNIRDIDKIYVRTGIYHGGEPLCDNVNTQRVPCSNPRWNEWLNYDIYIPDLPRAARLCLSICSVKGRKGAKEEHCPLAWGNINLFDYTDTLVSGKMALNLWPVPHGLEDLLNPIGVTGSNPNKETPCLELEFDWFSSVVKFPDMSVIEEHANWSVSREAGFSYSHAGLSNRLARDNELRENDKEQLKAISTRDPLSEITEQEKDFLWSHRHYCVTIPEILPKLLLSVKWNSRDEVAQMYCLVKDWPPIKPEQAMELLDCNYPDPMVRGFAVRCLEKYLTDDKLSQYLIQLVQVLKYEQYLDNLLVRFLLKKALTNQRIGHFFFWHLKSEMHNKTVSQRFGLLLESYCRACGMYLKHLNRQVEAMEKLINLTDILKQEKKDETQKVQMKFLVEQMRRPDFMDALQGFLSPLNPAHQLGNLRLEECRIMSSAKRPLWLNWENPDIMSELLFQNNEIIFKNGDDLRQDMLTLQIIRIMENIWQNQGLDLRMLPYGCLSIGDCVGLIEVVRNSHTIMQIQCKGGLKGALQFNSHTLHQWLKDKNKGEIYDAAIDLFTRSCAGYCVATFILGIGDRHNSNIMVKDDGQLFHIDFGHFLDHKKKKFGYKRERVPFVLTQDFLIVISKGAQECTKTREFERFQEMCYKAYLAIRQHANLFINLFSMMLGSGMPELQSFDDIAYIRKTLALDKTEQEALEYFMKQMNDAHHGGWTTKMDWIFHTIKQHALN
Sequence of PIK3CG (human) (P48736 whole entry, looked up): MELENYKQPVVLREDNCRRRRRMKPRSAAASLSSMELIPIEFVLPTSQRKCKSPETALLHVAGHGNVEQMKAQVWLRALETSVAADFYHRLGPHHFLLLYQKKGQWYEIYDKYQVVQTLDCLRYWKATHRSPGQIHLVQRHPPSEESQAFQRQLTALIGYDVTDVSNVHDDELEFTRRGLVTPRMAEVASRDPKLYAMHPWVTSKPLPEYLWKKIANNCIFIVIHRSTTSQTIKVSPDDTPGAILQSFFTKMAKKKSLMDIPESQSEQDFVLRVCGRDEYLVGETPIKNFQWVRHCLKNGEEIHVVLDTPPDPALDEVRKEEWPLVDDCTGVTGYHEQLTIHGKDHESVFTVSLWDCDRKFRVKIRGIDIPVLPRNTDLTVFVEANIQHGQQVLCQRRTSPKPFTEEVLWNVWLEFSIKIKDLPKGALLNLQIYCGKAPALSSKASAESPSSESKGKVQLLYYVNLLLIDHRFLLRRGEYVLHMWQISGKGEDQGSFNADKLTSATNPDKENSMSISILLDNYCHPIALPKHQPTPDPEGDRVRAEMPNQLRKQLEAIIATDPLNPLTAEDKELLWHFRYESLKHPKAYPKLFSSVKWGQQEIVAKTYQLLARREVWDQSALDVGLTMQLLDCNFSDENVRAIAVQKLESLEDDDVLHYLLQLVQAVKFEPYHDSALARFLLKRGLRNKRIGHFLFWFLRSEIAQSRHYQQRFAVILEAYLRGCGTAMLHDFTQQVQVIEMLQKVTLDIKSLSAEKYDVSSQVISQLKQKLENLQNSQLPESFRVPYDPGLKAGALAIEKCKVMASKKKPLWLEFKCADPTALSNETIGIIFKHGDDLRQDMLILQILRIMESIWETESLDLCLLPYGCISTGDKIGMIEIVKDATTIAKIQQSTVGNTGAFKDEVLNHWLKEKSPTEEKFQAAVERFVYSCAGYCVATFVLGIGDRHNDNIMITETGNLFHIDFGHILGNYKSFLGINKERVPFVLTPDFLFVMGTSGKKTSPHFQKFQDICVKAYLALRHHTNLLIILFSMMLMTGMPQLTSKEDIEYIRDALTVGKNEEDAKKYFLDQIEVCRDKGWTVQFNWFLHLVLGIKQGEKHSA
Sequence of PIK3CD (Human) (O00329 whole entry, looked up): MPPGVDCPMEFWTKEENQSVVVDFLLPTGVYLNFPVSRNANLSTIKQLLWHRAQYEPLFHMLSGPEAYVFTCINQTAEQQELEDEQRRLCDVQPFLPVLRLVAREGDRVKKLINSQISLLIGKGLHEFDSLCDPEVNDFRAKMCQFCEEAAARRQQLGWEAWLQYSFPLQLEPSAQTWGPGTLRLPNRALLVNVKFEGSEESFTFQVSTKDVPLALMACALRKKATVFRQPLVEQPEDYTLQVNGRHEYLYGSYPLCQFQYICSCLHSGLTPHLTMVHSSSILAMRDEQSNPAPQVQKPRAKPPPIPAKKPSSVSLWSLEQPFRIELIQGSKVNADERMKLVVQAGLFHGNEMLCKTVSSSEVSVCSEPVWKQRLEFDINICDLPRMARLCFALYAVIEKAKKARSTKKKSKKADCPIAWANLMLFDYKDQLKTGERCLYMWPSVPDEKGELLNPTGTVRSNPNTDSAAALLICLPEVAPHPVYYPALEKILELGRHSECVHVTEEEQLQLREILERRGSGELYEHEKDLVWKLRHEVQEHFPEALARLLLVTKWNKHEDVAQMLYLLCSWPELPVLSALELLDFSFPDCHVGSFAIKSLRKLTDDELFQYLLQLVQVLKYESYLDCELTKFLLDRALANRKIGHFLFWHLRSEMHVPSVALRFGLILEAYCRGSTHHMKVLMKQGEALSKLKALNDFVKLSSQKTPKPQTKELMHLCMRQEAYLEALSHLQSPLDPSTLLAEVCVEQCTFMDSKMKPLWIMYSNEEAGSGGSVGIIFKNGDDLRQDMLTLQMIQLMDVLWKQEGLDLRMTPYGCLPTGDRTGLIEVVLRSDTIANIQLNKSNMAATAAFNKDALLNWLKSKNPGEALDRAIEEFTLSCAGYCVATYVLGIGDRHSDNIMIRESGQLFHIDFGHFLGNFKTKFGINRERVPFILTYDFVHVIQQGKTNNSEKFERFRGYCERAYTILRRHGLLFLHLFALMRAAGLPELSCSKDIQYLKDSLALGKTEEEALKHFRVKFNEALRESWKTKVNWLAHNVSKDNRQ
Sequence of EGFR (human) (P00533 whole entry, looked up): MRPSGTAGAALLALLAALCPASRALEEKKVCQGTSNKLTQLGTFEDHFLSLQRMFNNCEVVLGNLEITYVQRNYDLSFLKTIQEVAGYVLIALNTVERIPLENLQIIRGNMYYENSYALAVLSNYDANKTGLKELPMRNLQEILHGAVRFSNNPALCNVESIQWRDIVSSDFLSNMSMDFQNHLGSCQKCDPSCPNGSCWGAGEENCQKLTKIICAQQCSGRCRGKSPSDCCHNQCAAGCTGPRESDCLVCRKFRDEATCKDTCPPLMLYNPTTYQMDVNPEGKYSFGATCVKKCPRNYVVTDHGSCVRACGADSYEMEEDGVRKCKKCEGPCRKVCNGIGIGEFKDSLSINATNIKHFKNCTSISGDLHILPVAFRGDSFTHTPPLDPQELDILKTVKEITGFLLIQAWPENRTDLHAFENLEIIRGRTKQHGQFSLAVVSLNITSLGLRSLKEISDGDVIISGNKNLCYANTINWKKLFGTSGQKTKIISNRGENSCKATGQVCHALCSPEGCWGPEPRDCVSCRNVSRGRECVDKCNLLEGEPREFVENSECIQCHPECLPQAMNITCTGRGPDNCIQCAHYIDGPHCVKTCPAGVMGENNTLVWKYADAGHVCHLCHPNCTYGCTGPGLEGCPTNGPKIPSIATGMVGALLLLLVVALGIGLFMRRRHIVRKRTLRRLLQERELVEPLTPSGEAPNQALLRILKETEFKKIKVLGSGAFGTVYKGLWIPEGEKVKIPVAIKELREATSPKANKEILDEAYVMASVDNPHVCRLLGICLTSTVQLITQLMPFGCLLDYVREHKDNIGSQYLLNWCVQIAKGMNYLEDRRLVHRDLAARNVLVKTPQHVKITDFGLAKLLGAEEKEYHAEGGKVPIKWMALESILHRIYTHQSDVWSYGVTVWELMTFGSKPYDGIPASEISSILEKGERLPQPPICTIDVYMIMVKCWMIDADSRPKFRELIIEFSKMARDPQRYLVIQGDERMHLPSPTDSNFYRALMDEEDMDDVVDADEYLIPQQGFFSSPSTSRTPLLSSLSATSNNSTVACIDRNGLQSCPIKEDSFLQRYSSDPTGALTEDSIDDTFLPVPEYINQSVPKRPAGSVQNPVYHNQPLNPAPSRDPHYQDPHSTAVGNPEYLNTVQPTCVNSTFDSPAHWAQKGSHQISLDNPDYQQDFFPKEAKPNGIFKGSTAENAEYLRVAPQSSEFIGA
Sequence of MAPK14 (human) (Q16539 whole entry, looked up): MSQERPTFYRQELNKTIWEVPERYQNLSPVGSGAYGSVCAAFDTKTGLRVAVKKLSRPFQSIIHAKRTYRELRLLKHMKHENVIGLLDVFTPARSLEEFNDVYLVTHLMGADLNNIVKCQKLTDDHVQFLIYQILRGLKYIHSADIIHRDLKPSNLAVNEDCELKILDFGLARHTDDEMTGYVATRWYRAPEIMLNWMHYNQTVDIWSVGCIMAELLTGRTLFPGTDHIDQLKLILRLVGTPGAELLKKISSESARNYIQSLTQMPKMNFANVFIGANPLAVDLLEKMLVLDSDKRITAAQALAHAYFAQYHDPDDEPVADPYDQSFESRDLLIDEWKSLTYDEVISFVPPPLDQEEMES

Take `CC(=O)Nc1nc(C)c(-c2ccc(Cl)c(S(=O)(=O)NCCO)c2)s1`: the IC50 (in general, the midpoint of a concentration-inhibition curve) against PIK3CB (Human) came to 590 nM. For the same compound, the inhibition (usually the drop in the measured response relative to a control, in per cent) is 1.9% at CDK2 (human) and -2.9% at MAPK14 (human).
On to `Cc1ccc([N+](=O)[O-])cc1S(=O)(=O)N(C)N=Cc1cnc2ccc(Br)cn12`, for which the values for the half-inhibitory concentration (IC50) against PIK3CG (human) and against CDK2 (human) were 76 nM and 1200 nM, respectively. On MAPK14 (human), the inhibition is -0.3%.
With `O=C1NC(=S)S/C1=C/c1ccc2c(c1)N(Cc1ccc(F)c(Cl)c1)C(=O)CO2`, the IC50 on PIK3CB (Human) is 1100 nM. For the same compound, the results for the inhibition against CDK2 (human) and against MAPK14 (human) were -4.9% and -2.6%, respectively.
On to `CC(C)n1nc(-c2ccc3onc(N)c3c2)c2c(N)ncnc21`, for which the IC50 against PIK3CA (human) is under 1000 nM; against PIK3CB (Human), 1000 to 50000 nM; on PIK3CD (Human), under 1000 nM; against PIK3CG (human), under 1000 nM; on EGFR (human), 1000 to 50000 nM.
Regarding `CC(C)n1cc(-c2cc3cc(C=O)ccc3s2)c2c(N)ncnc21`, the IC50 on PIK3CA (human) is 1000 to 50000 nM; against PIK3CB (Human) it was 1000 to 50000 nM; against PIK3CD (Human), 1000 to 50000 nM; on PIK3CG (human) it was 1000 to 50000 nM; against EGFR (human), over 50000 nM.
`CC(C)n1nc(-c2cccc(C(=O)NC3C=NCS3)c2)c2c(N)ncnc21` (stereo unspecified): the half-inhibitory concentration (IC50) against PIK3CA (human) was 1000 to 50000 nM; against PIK3CB (Human) it was 1000 to 50000 nM; at PIK3CD (Human), under 1000 nM; against PIK3CG (human), under 1000 nM; on EGFR (human), under 1000 nM.
For `COc1ccc2c(c1OC)N=C(NC(=O)c1cccnc1)N1CCN=C21`, the IC50 against EGFR (human) is over 50000 nM. Also, the inhibition against CDK2 (human) is -0.9%; at MAPK14 (human), 1.5%.
Turning to `Cc1ccccc1-n1c(Cn2ncc3c(N)ncnc32)nc2cccc(C)c2c1=O`, the IC50 is 100000 nM against PIK3CA (human), 25000 nM on PIK3CB (Human), 240 nM against PIK3CD (Human) and 10000 nM against PIK3CG (human).
As to `O=c1cc(-c2cccc3c2Sc2ccccc2S3)oc(N2CCOCC2)c1`, the IC50 against PIK3CA (human) was determined as 3300 nM; on PIK3CB (Human) it was 1200 nM; at PIK3CD (Human), 720 nM; against PIK3CG (human), 9900 nM. In addition, the inhibition against CDK2 (human) is 2.6%; against MAPK14 (human), -1.4%.
For the compound `CC(C)n1nc(-c2ccc(I)cc2)c2c(N)ncnc21`, the IC50 on PIK3CA (human) is 1000 to 50000 nM; on PIK3CB (Human), 1000 to 50000 nM; on PIK3CD (Human), under 1000 nM; against PIK3CG (human), 1000 to 50000 nM; against EGFR (human) it was 1000 to 50000 nM.
For `Oc1cccc(-c2nc(N3CCOCC3)c3oc4ncccc4c3n2)c1`, the inhibition at CDK2 (human) was 1.5%; against MAPK14 (human) it was 0.2%.
The corresponding values for `O=C(c1ccccc1)c1ccc(N2CCOCC2)cc1O` are 0.3% and -2.8%.
Turning to `COc1ccccc1-n1c(CSc2ncnc3[nH]cnc23)nc2cccc(Cl)c2c1=O`, the inhibition against CDK2 (human) was -5.6%; on MAPK14 (human) it was -8.5%.
As for `Cc1ccccc1-n1c(Cn2cnc3c(N)ncnc32)nc2cccc(C)c2c1=O`, the inhibition is -2.4% on CDK2 (human) and -4.1% against MAPK14 (human).
`Cc1cc(C(C)Nc2ccccc2)c2oc(-c3ccncc3)cc(=O)c2c1` (stereo unspecified): the 50% inhibitory concentration (IC50) against PIK3CB (Human) was found to be 120 nM. For the same compound, the results for the inhibition against CDK2 (human) and against MAPK14 (human) were -3.1% and -0.9%, respectively.
For the compound `Cc1ccccc1Oc1cccc2c(=O)cc(N3CCOCC3)[nH]c12`, the IC50 at PIK3CG (human) was 100000 nM. Moreover, the inhibition is -5.3% on CDK2 (human) and -1.2% at MAPK14 (human).
